Assay: xn = mol fraction of the nth substance listed

BrCCBr + Cc1ccc(C)cc1
101.33 kPa
Settings | viscosity [mPa·s]
298.15 K, x1 = 0.1435 | 0.6686
298.15 K, x1 = 0.2783 | 0.7322
298.15 K, x1 = 0.391 | 0.7899
298.15 K, x1 = 0.4898 | 0.887
298.15 K, x1 = 0.5921 | 1.001
298.15 K, x1 = 0.6809 | 1.082
298.15 K, x1 = 0.7685 | 1.169
298.15 K, x1 = 0.8555 | 1.309
298.15 K, x1 = 0.9211 | 1.459
308.15 K, x1 = 0.1371 | 0.5822
308.15 K, x1 = 0.2566 | 0.6257
308.15 K, x1 = 0.3821 | 0.6992
308.15 K, x1 = 0.4845 | 0.7526
308.15 K, x1 = 0.5874 | 0.8292
308.15 K, x1 = 0.6798 | 0.9216
308.15 K, x1 = 0.7647 | 1.018
308.15 K, x1 = 0.8499 | 1.154
308.15 K, x1 = 0.9258 | 1.273

Brc1ccccc1 + Cc1ccc(C)cc1
101 kPa
Settings | viscosity [mPa·s]
293.15 K, x1 = 0.1123 | 0.645
293.15 K, x1 = 0.225 | 0.695
293.15 K, x1 = 0.3321 | 0.746
293.15 K, x1 = 0.4327 | 0.795
293.15 K, x1 = 0.5301 | 0.845
293.15 K, x1 = 0.6412 | 0.897
293.15 K, x1 = 0.7553 | 0.95
293.15 K, x1 = 0.9107 | 1.018
298.15 K, x1 = 0.1121 | 0.61
298.15 K, x1 = 0.2263 | 0.658
298.15 K, x1 = 0.3316 | 0.701
298.15 K, x1 = 0.4646 | 0.758
298.15 K, x1 = 0.5298 | 0.785
298.15 K, x1 = 0.6418 | 0.835
298.15 K, x1 = 0.755 | 0.895
298.15 K, x1 = 0.9101 | 0.955
303.15 K, x1 = 0.1154 | 0.575
303.15 K, x1 = 0.22 | 0.615
303.15 K, x1 = 0.3355 | 0.657
303.15 K, x1 = 0.4366 | 0.7
303.15 K, x1 = 0.5593 | 0.75
303.15 K, x1 = 0.6816 | 0.799
303.15 K, x1 = 0.7723 | 0.835
303.15 K, x1 = 0.9149 | 0.891

C1=C[C@H]2[C@@H](C1)[C@H]1C=C[C@@H]2C1 + Cc1ccc(C)cc1
viscosity [mPa·s], 101.2 kPa
Settings | x1 = 0.1024 | x1 = 0.1971 | x1 = 0.3006 | x1 = 0.3993 | x1 = 0.4999 | x1 = 0.6007 | x1 = 0.7014 | x1 = 0.8001 | x1 = 0.8993
293.15 K | 0.7661 | 0.8509 | 0.9724 | 1.127 | 1.347 | 1.626 | 2.014 | 2.625 | 3.5
298.15 K | 0.7144 | 0.7986 | 0.9075 | 1.04 | 1.229 | 1.483 | 1.85 | 2.402 | 3.126
303.15 K | 0.6724 | 0.7508 | 0.8496 | 0.9666 | 1.141 | 1.367 | 1.693 | 2.174 | 2.81
308.15 K | 0.6225 | 0.7021 | 0.7934 | 0.9051 | 1.066 | 1.279 | 1.58 | 1.995 | 2.529
313.15 K | 0.5997 | 0.6653 | 0.7493 | 0.8554 | 1.001 | 1.19 | 1.457 | 1.826 | 2.271
318.15 K | 0.5879 | 0.6586 | 0.7357 | 0.8296 | 0.9662 | 1.138 | 1.371 | 1.689 | 2.104
